Where a name gives a salt, the structure may show the parent alone. Read-outs that look alike come from different tables or passages of the source. Peptide text beside a SMILES is read from it.
Experiments:
rabbit PepT1 [1] = target: T1, rabbit PepT1 (Oryctolagus cuniculus, UniProt P36836); assay: Inhibition of radiolabelled D-Phe-L-Gln uptake in Xenopus laevis oocytes expressing rabbit PepT1 (binding affinity); conditions: oocytes expressing rabbit PepT1, pH 5.5 assay buffer
T1 construct: expressed in transfected cells; host or cells: Xenopus laevis oocytes
T1 sequence (P36836 1-707): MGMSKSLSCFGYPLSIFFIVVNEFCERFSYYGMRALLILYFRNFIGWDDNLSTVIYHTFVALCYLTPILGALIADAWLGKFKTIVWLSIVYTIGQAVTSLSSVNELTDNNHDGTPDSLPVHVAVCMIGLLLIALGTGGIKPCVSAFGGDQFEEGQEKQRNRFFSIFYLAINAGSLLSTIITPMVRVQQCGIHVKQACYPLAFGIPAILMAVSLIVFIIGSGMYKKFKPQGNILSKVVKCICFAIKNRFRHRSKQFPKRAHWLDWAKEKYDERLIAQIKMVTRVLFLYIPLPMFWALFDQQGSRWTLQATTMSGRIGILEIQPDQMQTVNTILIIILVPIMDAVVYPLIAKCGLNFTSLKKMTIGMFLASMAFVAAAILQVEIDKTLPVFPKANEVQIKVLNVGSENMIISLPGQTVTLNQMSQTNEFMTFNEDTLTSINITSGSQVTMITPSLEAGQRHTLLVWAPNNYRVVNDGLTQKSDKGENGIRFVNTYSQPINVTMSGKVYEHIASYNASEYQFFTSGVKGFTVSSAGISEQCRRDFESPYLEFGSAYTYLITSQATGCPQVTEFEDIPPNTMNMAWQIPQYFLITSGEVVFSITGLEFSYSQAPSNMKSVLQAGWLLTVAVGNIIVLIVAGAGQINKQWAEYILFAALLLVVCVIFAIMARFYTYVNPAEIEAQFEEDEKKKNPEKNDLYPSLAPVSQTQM
Method: (§1) The Ki, trans-stimulation efflux and Caco-2 assays were performed as described previously.

rabbit PepT1 [2] = target: T1, rabbit PepT1; assay: Trans-stimulation efflux of [3H]-D-Phe-L-Gln from rabbit PepT1 expressing oocytes; assay type: cell-based; conditions: 10 mM prodrug, [3H]-D-Phe-L-Gln efflux, compared to GlyGln
Method: Trans-stimulation assays were performed using radiolabelled [^3H]-D-Phe-L-Gln efflux from rabbit PepT1 expressing oocytes in the presence of 10 mM pro-drug. As controls, 10 mM Gly-L-Gln (a standard PepT1 substrate) or buffer lacking a substrate (negative control) were used.
as §1

[3] = Caco-2 monolayer apical to basolateral transport; assay type: in vitro ADME; conditions: human, 2 mM prodrug, mean ± RSD, read-out: Overall Papp
Method: Prodrugs that generated robust trans-stimulated efflux in oocytes were further in a Caco-2 monolayer assay to investigate further the extent and rate of trans-epithelial transport. […] Apical to basolateral transport of 2 mM pro-drug, applied to the apical side, was monitored by high performance liquid chromatography (HPLC) after 1 h. The presence or absence of excess Gly-Gln allowed us to determine both the overall and PepT1 specific permeability (Table 2). […] The PepT1 mediated Papp values are of similar magnitude to known PepT1 (pro)drug substrates.
as §1

[4] = Stability in rat liver homogenate; assay type: in vitro ADME; conditions: 37 °C; for half-life at 0.5 mM: male, rat, rat liver homogenate, pH 7.5, 0.5 mM compound, read-out: Rat liver homgenate t1/2 (converted)
Method: Fresh rat liver homogenate was prepared by isolating liver from euthanized male rats, according to approved Home Office procedures. The liver was chopped with scissors and rinsed with medium (0.25 M sucrose, 25 mM KCl, 5 mM MgCl2 and 50 mM Tris/HCl, pH7.5) to remove trapped blood. The liver was then homogenized in fresh medium with a loose-fitting dounce-type homogenizer and kept on ice. Liver homogenate was incubated with either 0.5 mM compound 1 or 3, or L-Trp-L-Ala as a positive control, at 37 °C. 250 μl aliquots of the homogenate were taken at 0, 0.25, 0.5, 1, 2, 6 and 24 h. The samples were precipitated by addition an equal volume of 3% perchloric acid and centrifugation at 17000g for 5 min. The perchloric acid was neutralized with 250 μl of 1 M KOH, and the sample subjected to a freeze/thaw cycle to precipitate the KClO4 salt before again being centrifuged. The supernatant was then analyzed by HPLC as for the Caco-2 permeability studies, and the half-life of the compounds calculated according to the method of Vig et al..

[5] = Oral pharmacokinetics in male Sprague-Dawley rats; conditions: for Cmax / Tmax: rat plasma
Method: (§2) Animals were given free access to food and water throughout the study and maintained under a 12-h light/dark cycle with temperature and humidity controlled according to Home Office regulations.
(§3) Blood samples (230 μL) were taken from the carotid artery at the following time points and placed in heparinized tubes: predose, 0.25, 0.5, 1, 2, 4, 8 and 24 h post dose. After the final time point the animals were sacrificed by an overdose of anaesthetic.
(§4) Blood samples were centrifuged to obtain the plasma, which was transferred to a separate labelled container. Aliquots from the individual time points for the three animals were analyzed singly. 80 μL of plasma was diluted with 20 μL of 1:1 ACN:water, then 800 μL chilled ACN was added, samples briefly vortex mixed and the centrifuged at 13000 rpm for 5 min at 4 °C. 500 μL of the resultant supernatant was further diluted with 500 μL water.
(§5) 20 μL sample was analyzed by LC-MS/MS using a C18 5 μm Gemini UHPLC column running a gradient of 90% 0.04% acetic acid in water to 90% ACN over 3 min at a flow rate of 0.5 mL min^−1. MS data was acquired under multiple reaction monitoring conditions using a turbo spray ion source. The concentration in the plasma was determined by comparison to standard curves of the administered compound prepared in blank plasma matrices and treated in an identical manner to the samples.

rabbit PepT1 [6] = target: T1, rabbit PepT1; set-up: method as in PMID 19262922; conditions: 10 mM prodrug, [3H]-D-Phe-L-Gln efflux; previously reported data ref 16; cited from earlier work
[7] = male, Sprague-Dawley, rat, in vivo, po, 6 mg/kg
Method: as §2, §3, §4, §5

in vivo = conditions: male, Sprague-Dawley, rat, po, 6 mg/kg
Method: as §2, §3, §4, §5

[8] = rats; cited from earlier work
[9] = humans; cited from earlier work
[10] = pH 5.5

For CC(=O)N[C@H]1[C@H]([C@H](O)[C@H](O)COC(=O)C[C@H](NC(=S)[C@H](C)N)C(=O)O)OC(C(=O)O)=C[C@@H]1NC(=N)N (as salt: salt) (hydrate or solvate) [Compound 9, (4S,5R,6R)-5-acetamido-6-((1R,2R)-3-((S)-3-((S)-2-aminopropanethioamido)-3-carboxypropanoyloxy)-1,2-dihydroxypropyl)-4-guanidino-5,6-dihydro-4H-pyran-2-carboxylic acid], which melting point is on record?
Its melting point is 210 to 212 °C.

With C[C@H](N)C(=S)N[C@@H](COC(=O)C[C@@H](CN)c1ccc(Cl)cc1)C(=O)O (as salt: salt) (hydrate or solvate) [Compound 10, (S)-3-((R)-4-amino-3-(4-chlorophenyl)butanoyloxy)-2-((S)-2-aminopropanethioamido)propanoic acid] as the molecule, how does the melting point read?
The melting point was 112 to 115 °C.

With COc1c(C)c2c(c(O)c1C/C=C(\C)CCC(=O)OC[C@H](NC(=S)[C@H](C)N)C(=O)O)C(=O)OC2 (as salt: salt) (hydrate or solvate) [Compound 11, (S)-2-((S)-2-aminopropanethioamido)-3-((E)-6-(4-hydroxy-6-methoxy-7-methyl-3-oxo-1,3-dihydroisobenzofuran-5-yl)-4-methylhex-4-enoyloxy)propanoic acid] as the molecule, how does the melting point read?
The melting point was 140 to 143 °C.

With CC(C)NC[C@@H](COc1ccc(CC(N)=O)cc1)OC(=O)C[C@H](NC(=S)[C@H](C)N)C(=O)O (as salt: salt) [Compound 8, (S)-4-((S)-3-(4-(2-amino-2-oxoethyl)phenoxy)-1-(isopropylamino)propan-2-yloxy)-2-((S)-2-aminopropanethioamido)-4-oxobutanoic acid] as the molecule, how does the melting point read?
Its melting point is 118 to 121 °C.

For CC(C)Cc1ccc([C@@H](C)C(=O)OC[C@H](NC(=S)[C@H](C)N)C(=O)O)cc1 [Compound 1], which Ki (rabbit PepT1 [1]) is on record?
The Ki was 260 ± 30 µM.

And the “Trans-stimulated efflux?” value (rabbit PepT1 [2])?
Its value is “Yes”.

What about the Papp at 1 h, 2 mM [3] of the same molecule?
The Papp at 1 h, 2 mM was 3.7 ± 0.2 ×10⁻⁶ cm/s.

And the half-life at 0.5 mM [4]?
Its half-life at 0.5 mM is > 17 h.

What about the AUC ([5]; male, Sprague-Dawley, rat, plasma, po, 10 mg/kg) of the same molecule?
The AUC was 500 ± 100 ng·h/mL.

And the Cmax ([5]; male, Sprague-Dawley, rat, plasma, po, 10 mg/kg, CMax, 1 at 10 mg kg^−1 oral, assayed compound intact 1)?
Its Cmax is 200 ± 40 ng/mL.

And the Tmax ([5]; male, Sprague-Dawley, rat, plasma, po, 10 mg/kg, 1 at 10 mg kg^−1 oral, assayed compound intact 1)?
The Tmax was 1 h.

What does the source list for C[C@H](N)C(=S)N[C@@H](COC(=O)CC1(CN)CCCCC1)C(=O)O [Compound 2, (S)-3-[2-(1-Aminomethyl-cyclohexyl)-acetoxy]-2-((S)-2-amino-thiopropionylamino)-propionic acid]?
Ki (rabbit PepT1 [1]): 1010 ± 330 µM; Trans-stimulated efflux? (rabbit PepT1 [2]): Yes; Papp at 1 h, 2 mM [3]: 0.6 ± 0.1 ×10⁻⁶ cm/s

What does the source list for CC(C)c1cccc(C(C)C)c1OC(=O)C[C@H](NC(=S)[C@H](C)N)C(=O)O [Compound 3, (S)-2-((S)-2-Amino-thiopropionylamino)-succinic acid 4-(2,6-diisopropyl-phenyl) ester]?
Ki (rabbit PepT1 [1]): 920 ± 190 µM; Trans-stimulated efflux? (rabbit PepT1 [2]): Yes; Rat liver homgenate t1/2 ([4]; 0.5 mM compound): 7.3 h; half-life at 0.5 mM [4]: 7 h; Cmax ([5]; 3 at 7.6 mg kg^−1 oral, assayed compound intact 3): 16300 ± 1800 ng/mL; AUC ([5]; male, Sprague-Dawley, rat, plasma, po, 7.6 mg/kg): 3200 ± 1400 ng·h/mL; Cmax ([5]; male, Sprague-Dawley, rat, plasma, po, 7.6 mg/kg, CMax, 3 at 7.6 mg kg^−1 oral, assayed compound intact 3): 16700 ng/mL; Tmax ([5]; male, Sprague-Dawley, rat, plasma, po, 7.6 mg/kg, 3 at 7.6 mg kg^−1 oral, assayed compound intact 3): 5.2 ± 0.8 h

Which “Trans-stimulated efflux?” value (rabbit PepT1 [6]) does the source give for COc1ccc2cc(CC/C(C)=N/OCCOC(=O)C[C@H](NC(=S)[C@H](C)N)C(=O)O)ccc2c1 [Compound 6] here?
Its value is “Yes”.

For CC(C)NC[C@@H](COc1ccc(CC(N)=O)cc1)OC(=O)C[C@H](NC(=S)[C@H](C)N)C(=O)O [Compound 8, (S)-4-((S)-3-(4-(2-amino-2-oxoethyl)phenoxy)-1-(isopropylamino)propan-2-yloxy)-2-((S)-2-aminopropanethioamido)-4-oxobutanoic acid], which Ki (rabbit PepT1 [1]) is on record?
The Ki was 440 ± 150 µM.

And the “Trans-stimulated efflux?” value (rabbit PepT1 [2])?
Its value is “No”.

Which Ki (rabbit PepT1 [1]) does the source give for CC(=O)N[C@H]1[C@H]([C@H](O)[C@H](O)COC(=O)C[C@H](NC(=S)[C@H](C)N)C(=O)O)OC(C(=O)O)=C[C@@H]1NC(=N)N [Compound 9, (4S,5R,6R)-5-acetamido-6-((1R,2R)-3-((S)-3-((S)-2-aminopropanethioamido)-3-carboxypropanoyloxy)-1,2-dihydroxypropyl)-4-guanidino-5,6-dihydro-4H-pyran-2-carboxylic acid] here?
The Ki was 130 ± 20 µM.

And the “Trans-stimulated efflux?” value (rabbit PepT1 [2])?
Its value is “No”.

With C[C@H](N)C(=S)N[C@@H](COC(=O)C[C@@H](CN)c1ccc(Cl)cc1)C(=O)O [Compound 10, (S)-3-((R)-4-amino-3-(4-chlorophenyl)butanoyloxy)-2-((S)-2-aminopropanethioamido)propanoic acid] as the molecule, how does the Ki (rabbit PepT1 [1]) read?
The Ki was 1870 ± 260 µM.

And the “Trans-stimulated efflux?” value (rabbit PepT1 [2])?
The value was “No”.

With COc1c(C)c2c(c(O)c1C/C=C(\C)CCC(=O)OC[C@H](NC(=S)[C@H](C)N)C(=O)O)C(=O)OC2 [Compound 11, (S)-2-((S)-2-aminopropanethioamido)-3-((E)-6-(4-hydroxy-6-methoxy-7-methyl-3-oxo-1,3-dihydroisobenzofuran-5-yl)-4-methylhex-4-enoyloxy)propanoic acid] as the molecule, how does the Ki (rabbit PepT1 [1]) read?
Its Ki is 210 ± 80 µM.

And the “Trans-stimulated efflux?” value (rabbit PepT1 [2])?
Its value is “only weakly triggered efflux and Weak”.

Which Ki (rabbit PepT1 [1]) does the source give for C[C@H](NC(=O)[C@@H](N)Cc1ccccc1)C(N)=S [FSA, PheΨ[CS-NH]-Ala, reference compound] here?
Its Ki is 320 ± 80 µM.

What about the “Trans-stimulated efflux?” value (rabbit PepT1 [2]) of the same molecule?
The value was “No”.

And the Papp at 1 h, 2 mM [3]?
Its Papp at 1 h, 2 mM is 3 ± 0.5 ×10⁻⁶ cm/s.

Which Tmax [7] does the source give for CC(C)Cc1ccc(C(C)C(=O)O)cc1 (stereo not shown) [Ibuprofen] here?
Its Tmax is 0.7 ± 0.3 h.

And the AUC (in vivo)?
The AUC was 14000 ± 1800 ng·h/mL.

And the Cmax (in vivo; CMax)?
The Cmax was 5700 ± 600 ng/mL.

What about the Tmax (in vivo; tmax) of the same molecule?
The Tmax was 1 h.

With C[C@H](NC(=O)[C@@H](N)Cc1c[nH]c2ccccc12)C(=O)O [L-Trp-L-Ala, reference compound] (H-Trp-Ala-OH) as the molecule, how does the half-life at 0.5 mM [4] read?
The half-life at 0.5 mM was 0.15 h.

Which Oral bioavailability [8] does the source give for CC(C)c1cccc(C(C)C)c1O [propofol] here?
The Oral bioavailability was “no oral bioavailability”.

And the Oral bioavailability [9]?
The Oral bioavailability was “no oral bioavailability”.

With “(S)-2-((S)-2-Amino-thiopropionylamino)-succinic acid 4-(2-{2-[2-(2-acetoxy-benzoyloxy)-ethoxy]-ethoxy}-ethyl) ester [Compound 4]” as the molecule, how does the “Stability in assay buffer” value [10] read?
Its value is “limited stability”.

With “(S)-2-((S)-2-Amino-thiopropionylamino)-succinic acid 4-[2-(2-amino-6-oxo-1,6-dihydro-purin-9-ylmethoxy)-ethyl] ester [Compound 5]” as the molecule, how does the “Stability in assay buffer” value [10] read?
The value was “limited stability”.

Reference: article PMC6107785, “Thiodipeptides targeting the intestinal oligopeptide transporter as a general approach to improving oral drug delivery” (European Journal of Medicinal Chemistry, 2018)
